Reference: patent EP3130594B1, “PHOSPHONATES OF ACETYLENIC BETULIN DERIVATIVES WITH ANTICANCER ACTIVITY, METHOD FOR THEIR PRODUCTION AND THEIR APPLICATION” (Slaski Uniwersytet Medyczny w Katowicach, priority 2015, dated 2017)
In brackets after ≈: the same amount, converted by molar mass.

Legend:
Experiment in all cases: Cytotoxic activity in vitro, WST1 test
breast cancer T47D = format: cell-based, human; conditions: T47D cells, Neg = no activity in the applied concentration range; for IC50: Homo sapiens, read-out: Cytotoxic activity in vitro as IC50
Experimental: (§1) The evaluation of cytotoxic activity of the compounds described with Formula 2 was carried out against human cancer cells [brain glioma SNB-19, breast cancer T47D, melanoma C32] using WST1 tests (Table 1).

melanoma C32 = format: cell-based; conditions: Homo sapiens, C32 cells, read-out: Cytotoxic activity in vitro as IC50
Experimental: as §1

brain glioma SNB-19 = format: cell-based; conditions: Homo sapiens, SNB-19 cells, read-out: Cytotoxic activity in vitro as IC50
Experimental: as §1

Row | SMILES | IC50 (breast cancer T47D) [µg/mL] | IC50 (melanoma C32) [µg/mL] | IC50 (brain glioma SNB-19) [µg/mL] | Cytotoxic activity in vitro as IC50 (breast cancer T47D)
1 | CC#CC(=O)OC[C@]12CC[C@@H](/C(C)=C/P(=O)(OCC)OCC)[C@@H]1[C@H]1CC[C@@H]3[C@@]4(C)CC[C@H](OC(=O)C#CC)C(C)(C)[C@@H]4CC[C@@]3(C)[C@]1(C)CC2 [3,28-Di(2-butynoyl)-29-diethoxyphosphorylbetulin] | 13.9 ± 3.4 (≈ 19.6 µM) | 4.9 ± 0.3 (≈ 6.89 µM) | 7.6 ± 1 (≈ 10.7 µM) | –
2 | CCOP(=O)(/C=C(\C)[C@@H]1CC[C@]2(COC(=O)C#CC3CC3)CC[C@]3(C)[C@H](CC[C@@H]4[C@@]5(C)CC[C@H](OC(=O)C#CC6CC6)C(C)(C)[C@@H]5CC[C@]43C)[C@@H]12)OCC [3,28-Di(cyclopropylpropynoyl)-29-diethoxyphosphorylbetulin] | 79.5 ± 1.9 (≈ 104 µM) | 9.4 ± 0.2 (≈ 12.3 µM) | 40.4 ± 6.8 (≈ 52.9 µM) | –
3 | CCOP(=O)(/C=C(\C)[C@@H]1CC[C@]2(COC(=O)C#CC3CC3)CC[C@]3(C)[C@H](CC[C@@H]4[C@@]5(C)CC[C@H](O)C(C)(C)[C@@H]5CC[C@]43C)[C@@H]12)OCC [28-cyclopropylpropynoyl-29-diethoxyphosphorylbetulin] | 8.2 ± 0.6 (≈ 12.2 µM) | 4.7 ± 0.7 (≈ 7.01 µM) | 2.2 ± 0.8 (≈ 3.28 µM) | –
4 | C#CCOC(=O)OC[C@]12CC[C@@H](/C(C)=C/P(=O)(OCC)OCC)[C@@H]1[C@H]1CC[C@@H]3[C@@]4(C)CC[C@H](O)C(C)(C)[C@@H]4CC[C@@]3(C)[C@]1(C)CC2 [29-Diethoxyphosphoryl-28-propargyloxycarbonylbetulin] | 49.4 ± 6.1 (≈ 74.7 µM) | 5.9 ± 0.3 (≈ 8.93 µM) | 24.5 ± 12.6 (≈ 37.1 µM) | –
5 | C#CCOC(=O)OC[C@]12CC[C@@H](/C(C)=C/P(=O)(OCC)OCC)[C@@H]1[C@H]1CC[C@@H]3[C@@]4(C)CC[C@H](OC(=O)OCC#C)C(C)(C)[C@@H]4CC[C@@]3(C)[C@]1(C)CC2 [29-diethoxyphosphoryl-3,28-di(propargyloxycarbonyl)betulin] | – | 51.7 ± 4.8 (≈ 69.6 µM) | 0.5 ± 0.1 (≈ 0.673 µM) | Neg
6 | C=C(C)[C@@H]1CC[C@]2(CO)CC[C@]3(C)[C@H](CC[C@@H]4[C@@]5(C)CC[C@H](O)C(C)(C)[C@@H]5CC[C@]43C)[C@@H]12 [Betulin, lup-20(29)-ene-3β,28-diol] | 77.9 ± 4 (≈ 176 µM) | – | 23.5 ± 2 (≈ 53.1 µM) | –
7 | C=C(CP(=O)(OCC)OCC)[C@@H]1CC[C@]2(COC(C)=O)CC[C@]3(C)[C@H](CC[C@@H]4[C@@]5(C)CC[C@H](OC(C)=O)C(C)(C)[C@@H]5CC[C@]43C)[C@@H]12 [R = R1 = Et, R2 = AcO, R3 = CH2OAc, 3, 28 - Diacetyl - 30 - diethoxyphosphorylbetulin] | 58 ± 3.4 (≈ 87.5 µM) | – | 51.9 ± 0.8 (≈ 78.3 µM) | –
8 | C#CC(=O)OC[C@]12CC[C@@H](/C(C)=C/P(=O)(OCC)OCC)[C@@H]1[C@H]1CC[C@@H]3[C@@]4(C)CC[C@H](O)C(C)(C)[C@@H]4CC[C@@]3(C)[C@]1(C)CC2 [R = R1 = Et, R2 = HO, R3 =CH2C(O)C≡CH, 29-Diethoxyphosphoryl-28-propynoylbetulin] | 0.4 ± 0.1 (≈ 0.634 µM) | – | 0.3 ± 0.1 (≈ 0.476 µM) | –
9 | CC#CC(=O)OC[C@]12CC[C@@H](/C(C)=C/P(=O)(OCC)OCC)[C@@H]1[C@H]1CC[C@@H]3[C@@]4(C)CC[C@H](O)C(C)(C)[C@@H]4CC[C@@]3(C)[C@]1(C)CC2 [R = R1 =Et, R2 =HO, R3 =CH2OC(O)C ≡ CCH3, 28-(2-butynoyl)-29-diethoxyphosphorylbetulin] | 9.6 ± 0.6 (≈ 14.9 µM) | 4.9 ± 0.1 (≈ 7.6 µM) | 7.5 ± 0.3 (≈ 11.6 µM) | –
10 | C#CC(=O)OC[C@]12CC[C@@H](/C(C)=C/P(=O)(OCC)OCC)[C@@H]1[C@H]1CC[C@@H]3[C@@]4(C)CC[C@H](OC(=O)C#C)C(C)(C)[C@@H]4CC[C@@]3(C)[C@]1(C)CC2 [R=R1=Et, R2=HC≡CC(O)O, R3 = CH2C(O)C≡CH, 29-Diethoxyphosphoryl-3,28-dipropynoylbetulin] | 2.8 ± 0.6 (≈ 4.1 µM) | – | 0.6 ± 0.1 (≈ 0.879 µM) | –
11 | CCOP(=O)(/C=C(/C)[C@@H]1CC[C@]2(CO)CC[C@]3(C)[C@H](CC[C@@H]4[C@@]5(C)CC[C@H](O)C(C)(C)[C@@H]5CC[C@]43C)[C@@H]12)OCC [cis R = R1 = Et, R2 =OH, R3 = CH2OH, Z - 29 - Diethoxyphosphorylbetulin] | 0.9 ± 0.1 (≈ 1.55 µM) | – | 4.8 ± 0.1 (≈ 8.29 µM) | –
12 | CCOP(=O)(/C=C(\C)[C@@H]1CC[C@]2(CO)CC[C@]3(C)[C@H](CC[C@@H]4[C@@]5(C)CC[C@H](O)C(C)(C)[C@@H]5CC[C@]43C)[C@@H]12)OCC [trans R = R1 =Et, R2= OH, R3 = CH2OH, E-29-Diethoxyphosphorylbetulin] | 6.2 ± 0.5 (≈ 10.7 µM) | – | 5.9 ± 0.4 (≈ 10.2 µM) | –
